# Reference: patent US20070009597A1, “Active substance combination comprising a compound with npy receptor affinity and a compound with 5-ht6 receptor affinity” (LABORATORIOS DEL DR. ESTEVE S.A., priority 2003, published 2007)
smiles,measurement,value
"CN(C)CCn1ccc2cc(NS(=O)(=O)c3cccc4nsnc34)ccc21 [Example 10e, N-[1-(2-dimethylaminoethyl)-1H-indole-5-yl]-benzo[1,2,5]thiadiazole-4-sulfonamide]",melting point,166 to 168 °C
